Source: ChEMBL document CHEMBL3351804, “Development of 2-aryl substituted quinazolin-4(3H)-one, pyrido[4,3-d]pyrimidin-4(3H)-one and pyrido[2,3-d]pyrimidin-4(3H)-one derivatives as microsomal prostaglandin E(2) synthase-1 inhibitors” (Bioorg Med Chem Lett, 2014)

Experiments:
[1] = target: T1, Prostaglandin E synthase (Homo sapiens, UniProt O14684); test: Inhibition of mPGES-1 in human A549 cells assessed as inhibition of IL-1beta-induced PGE2 production incubated for 30 mins prior to IL-1beta challenge measured after 18 to 24 hrs; assay type: cell-based
T1 sequence (O14684 whole entry): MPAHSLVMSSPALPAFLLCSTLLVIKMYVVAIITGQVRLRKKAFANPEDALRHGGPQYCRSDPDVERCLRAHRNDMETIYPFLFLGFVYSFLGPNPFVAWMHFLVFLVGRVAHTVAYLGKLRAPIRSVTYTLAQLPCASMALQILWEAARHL

[2] = target: Prostaglandin F2-alpha receptor (Homo sapiens) (UniProt P43088); test: Induction of recombinant PGF2-alpha (unknown origin) at 10 uM
[3] = target: T2, Prostacyclin synthase (Homo sapiens) (UniProt Q16647); test: Inhibition of recombinant PGIS (unknown origin) at 10 uM
T2 sequence (whole entry): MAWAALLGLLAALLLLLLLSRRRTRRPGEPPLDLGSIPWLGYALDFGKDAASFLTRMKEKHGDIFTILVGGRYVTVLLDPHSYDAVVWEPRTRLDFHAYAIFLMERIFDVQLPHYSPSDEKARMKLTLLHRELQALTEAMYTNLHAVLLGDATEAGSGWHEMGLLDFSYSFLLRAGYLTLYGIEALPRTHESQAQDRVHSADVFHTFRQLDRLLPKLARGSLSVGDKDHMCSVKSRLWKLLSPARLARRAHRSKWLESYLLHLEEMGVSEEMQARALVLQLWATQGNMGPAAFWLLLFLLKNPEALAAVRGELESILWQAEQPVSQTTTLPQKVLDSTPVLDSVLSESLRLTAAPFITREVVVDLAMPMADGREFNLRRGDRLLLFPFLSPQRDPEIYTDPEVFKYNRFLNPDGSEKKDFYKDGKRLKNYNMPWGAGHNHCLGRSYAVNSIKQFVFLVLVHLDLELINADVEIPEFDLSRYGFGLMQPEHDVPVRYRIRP

[4] = Stability in human liver microsomes assessed as compound remaining after 60 mins; assay type: ADME; details: read-out: Stability
[5] = target: Hematopoietic prostaglandin D synthase (Homo sapiens) (UniProt O60760); test: Inhibition of recombinant PGDS (unknown origin) at 10 uM
[6] = target: T3, Prostaglandin G/H synthase 2 (Homo sapiens) (UniProt P35354); test: Inhibition of recombinant COX2 (unknown origin) at 10 uM
T3 sequence (whole entry): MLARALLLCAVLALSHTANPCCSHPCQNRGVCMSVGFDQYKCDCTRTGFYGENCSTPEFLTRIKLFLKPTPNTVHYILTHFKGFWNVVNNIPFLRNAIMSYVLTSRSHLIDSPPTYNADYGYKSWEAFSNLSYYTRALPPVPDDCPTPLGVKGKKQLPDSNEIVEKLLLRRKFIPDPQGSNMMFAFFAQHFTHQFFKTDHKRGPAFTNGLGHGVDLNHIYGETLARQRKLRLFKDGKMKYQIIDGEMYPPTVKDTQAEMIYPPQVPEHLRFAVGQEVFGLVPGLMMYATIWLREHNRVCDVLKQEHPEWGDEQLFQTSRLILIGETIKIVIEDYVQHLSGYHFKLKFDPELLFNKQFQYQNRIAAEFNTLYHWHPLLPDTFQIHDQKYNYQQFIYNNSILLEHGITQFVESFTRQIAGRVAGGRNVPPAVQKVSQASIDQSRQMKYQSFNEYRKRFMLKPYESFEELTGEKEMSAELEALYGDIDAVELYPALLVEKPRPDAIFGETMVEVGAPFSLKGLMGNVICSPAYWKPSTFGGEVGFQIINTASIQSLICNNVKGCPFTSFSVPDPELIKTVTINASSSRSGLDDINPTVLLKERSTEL

[7] = AUClast in Sprague-Dawley rat at 10 mg/kg, po; assay type: ADME, organism-based; design: time 0 - last, dose 10 mg/kg, route oral; details: plasma

Prostaglandin F2-alpha receptor (Homo sapiens), sequence (P43088 whole entry): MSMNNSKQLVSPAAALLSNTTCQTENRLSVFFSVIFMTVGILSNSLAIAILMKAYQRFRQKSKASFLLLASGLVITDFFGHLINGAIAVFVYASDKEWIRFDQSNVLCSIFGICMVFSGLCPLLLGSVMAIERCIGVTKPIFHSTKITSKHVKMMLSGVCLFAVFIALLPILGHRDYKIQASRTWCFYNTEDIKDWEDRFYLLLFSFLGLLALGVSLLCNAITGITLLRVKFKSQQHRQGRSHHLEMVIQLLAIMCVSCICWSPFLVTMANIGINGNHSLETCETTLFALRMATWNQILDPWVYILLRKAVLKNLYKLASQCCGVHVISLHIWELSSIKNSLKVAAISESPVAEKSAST
Hematopoietic prostaglandin D synthase (Homo sapiens), sequence (O60760 whole entry): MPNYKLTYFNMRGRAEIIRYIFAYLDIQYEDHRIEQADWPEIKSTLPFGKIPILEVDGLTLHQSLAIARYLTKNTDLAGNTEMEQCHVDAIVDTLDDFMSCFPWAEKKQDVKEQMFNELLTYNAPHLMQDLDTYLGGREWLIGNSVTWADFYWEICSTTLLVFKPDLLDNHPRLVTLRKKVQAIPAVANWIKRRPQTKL

CC(C)C(=O)NCc1ccc(Cl)c(-c2nc3cc(-c4ccc(C(F)(F)F)cc4)ncc3c(=O)[nH]2)c1
IC50 [1]: 5 nM
Activity [2]: 186%
inhibition [3]: 0.67%
remaining at 1 h [4]: 91%
inhibition [5]: 18.7%
inhibition [6]: 4.87%
AUC(0-t) [7]: 1230 ng·h/mL
